Columns and labels:
[1] = biological target: T1, 5α-reductase (Homo sapiens, UniProt P18405); test: 5α-reductase inhibition in DU 145 cells (conversion of tritiated 4-androstenedione); type: cell-based
T1 construct: host or cells: DU 145 (human prostate carcinoma)
T1 sequence (P18405 1-259): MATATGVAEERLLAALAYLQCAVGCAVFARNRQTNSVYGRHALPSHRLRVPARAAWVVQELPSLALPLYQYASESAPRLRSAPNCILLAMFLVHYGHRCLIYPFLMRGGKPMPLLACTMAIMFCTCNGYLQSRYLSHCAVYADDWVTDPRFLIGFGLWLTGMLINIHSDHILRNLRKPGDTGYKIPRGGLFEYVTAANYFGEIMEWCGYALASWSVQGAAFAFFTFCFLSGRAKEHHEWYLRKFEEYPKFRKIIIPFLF
Description: Except where otherwise indicated, 5α-reductase inhibition is measured by the following method. Plates having 24 dishes per unit are used. Into each dish were placed 100,000 cells from the human carcinoma metastatic prostatic cell line DU 145 (ATCC #HTB 81) in MEM medium containing 2% dextran charcoal-treated calf serum, 1% penicillin, 1% streptomycin and 1% non essential amino acids. After 24 h, the medium was removed and replaced by 2.5 ml of MEM medium containing 2% dextran charcoal-treated calf serum, 10 nM of tritiated […] and 1% of ethanol. Each dish had different concentrations of the 5α-reductase inhibitor being tested. The cells were incubated for 24 h at 37° C. under an atmosphere of 5% CO2 saturated with water. The extracellular medium was then removed, centrifuged at 1000 RPM for 10 min., and decanted in test tubes. To these test tubes was added 100 μl of ethanol containing 25 μg of androstanedione, 25 μg of 4-androstenedione, 25 μg of dihydrotestosterone and 25 μg of testosterone. The steroids were then extracted from the mixture by two extractions with 2 ml of diethyl ether. Phase separation was achieved by freezing of the aqueous phase. The organic phase was then evaporated, thus leaving asteroid residue which was dissolved in a few drops of methylene chloride and spotted on TLC plates (Whatman WH 4420222). After developing twice with a mixture of benzene-acetone (9:1), the spots were visualized by U.V. and gaseous iodine, cut, put into separate vials for each steroid and extracted for 15 min with 1 ml of ethanol. After addition of 10 ml of scintillation cocktail (NEN 989), the vials were shaked and counted.
The 5α-reductase activity is the sum of the transformation of 4-androstenedione to androstanedione and of the transformation of testosterone to dihydrotestosterone.

[2] = test system: rat prostate; details: in vitro and in vivo; Brooks et al. 1981; cited from earlier work
[3] = test system: ventral prostate; details: rat; Brooks et al. 1981; cited from earlier work
[4] = test system: 5α-reductase; details: Liang et al. 1981; cited from earlier work
[5] = test system: prostate; details: men; Imperato-McGinley et al. 1989; cited from earlier work
[6] = test system: intraprostatic DHT; details: men; Imperato-McGinley et al. 1989; cited from earlier work
[7] = test system: type II 5α-reductase; details: Andersson et al. 1991; cited from earlier work
[8] = test system: type I 5α-reductase; details: Andersson et al. 1991; cited from earlier work

| Compound | Ki [1] | also measured |
| --- | --- | --- |
| CCCCN(C=O)[C@H]1CC[C@H]2[C@@H]3CC[C@H]4N(C)C(=O)CC[C@]4(C)[C@H]3CC[C@]12C [EM 347, 17β-(N-n-butyl-N-formamido)-4-methyl-4-aza-5α-androstan-3-one] | 2.6 nM | – |
| CNC(=O)N(C1CC1)[C@H]1CC[C@H]2[C@@H]3CC[C@H]4N(C)C(=O)CC[C@]4(C)[C@H]3CC[C@]12C [EM 373, 17β-N-(1N-cyclopropyl-2N-methylurea)-4-methyl-4-aza-5α-androstan-3-one] | 0.5 nM | – |
| CCCCCCN(C=O)[C@H]1CC[C@H]2[C@@H]3CC[C@H]4N(C)C(=O)CC[C@]4(C)[C@H]3CC[C@]12C [EM 402, 17β-(N-n-Hexyl-N-formamido)-4-methyl-4-aza-5α-androstan-3-one] | 7.2 nM | – |
| CC(C)CN(C=O)[C@H]1CC[C@H]2[C@@H]3CC[C@H]4N(C)C(=O)CC[C@]4(C)[C@H]3CC[C@]12C [EM 422, 17β-(N-iso-Butyl-N-formamido)-4-methyl-4-aza-5-androstan-3-one] | 7.3 nM | – |
| CCN(CC)C(=O)[C@H]1CC[C@H]2[C@@H]3CC[C@H]4N(C)C(=O)CC[C@]4(C)[C@H]3CC[C@]12C [4-MA, N,N-diethyl-4-methyl-3-oxo-4-aza-5α-androstane-17β-carboxamide] | – | inhibiting the formation of DHT from testosterone in rat prostate [2]: useful in inhibiting the formation of DHT from testosterone in rat prostate in vitro and in vivo; testosterone-induced increase in ventral prostate weight [3]: reducing the testosterone-induced increase in ventral prostate weight; 5α-reductase inhibition type [4]: reversible inhibitor of 5α-reductase |
| CN1C(=O)CC[C@]2(C)[C@H]3CC[C@]4(C)[C@@H](N(C=O)Cc5ccccc5)CC[C@H]4[C@@H]3CC[C@@H]12 [EM 436, 17β-(N-Benzyl-N-formamido)-4-methyl-4-aza-5α-androstan-3-one] | 5.6 nM | – |
| CCCCCN(C=O)[C@H]1CC[C@H]2[C@@H]3CC[C@H]4N(C)C(=O)CC[C@]4(C)[C@H]3CC[C@]12C [EM 401, 17β(N-n-Amyl-N-formamido)-4-methyl-4-aza-5α-androstan-3-one] | 1.8 nM | – |
| CCC(CC)N(C=O)[C@H]1CC[C@H]2[C@@H]3CC[C@H]4N(C)C(=O)CC[C@]4(C)[C@H]3CC[C@]12C [EM 407, 17β-(N-1-Ethylpropyl-N-formamido)-4-methyl-4-aza-5α-androstan-3-one] | 10.6 nM | – |
| CN1C(=O)CC[C@]2(C)[C@H]3CC[C@]4(C)[C@@H](N(C=O)C5CCCCC5)CC[C@H]4[C@@H]3CC[C@@H]12 [EM 337, 17β-(N-Cyclohexyl-N-formamido)-4-methyl-4-aza-5α-androstan-3-one] | 11.9 nM | – |
| CN1C(=O)CC[C@]2(C)[C@H]3CC[C@]4(C)[C@@H](N(C=O)C5CC5)CC[C@H]4[C@@H]3CC[C@@H]12 [EM 336, 17β-(N-Cyclopropyl-N-formamido)-4-methyl-4-aza-5α-androstan-3-one] | 11.2 nM | – |
| CN(C(=O)Nc1ccccc1)[C@H]1CC[C@H]2[C@@H]3CC[C@H]4N(C)C(=O)CC[C@]4(C)[C@H]3CC[C@]12C [EM 408, 17βN-(1N-methyl-2N-phenylurea)-4-methyl-4-aza-5α-androstan-3-one] | 8.2 nM | – |
| CCCCNC(=O)N(C1CC1)[C@H]1CC[C@H]2[C@@H]3CC[C@H]4N(C)C(=O)CC[C@]4(C)[C@H]3CC[C@]12C [EM 394] | 3.3 nM | – |
| CCNC(=O)N(C1CC1)[C@H]1CC[C@H]2[C@@H]3CC[C@H]4N(C)C(=O)CC[C@]4(C)[C@H]3CC[C@]12C [EM 392, 17βN-(1N-cyclopropyl-2N-ethylurea)-4-methyl-4-aza-5α-androstan-3-one] | 13.5 nM | – |
| CN1C(=O)CC[C@]2(C)[C@H]3CC[C@]4(C)[C@@H](N(C(=O)Nc5ccccc5)C5CC5)CC[C@H]4[C@@H]3CC[C@@H]12 [EM 374, 17β-N-(1N-cyclopropyl-2N-phenylurea)-4-methyl-4-aza-5α-androstan-3-one] | 2.3 nM | – |
| CN(C=O)[C@H]1CC[C@H]2[C@@H]3CC[C@H]4N(C)C(=O)CC[C@]4(C)[C@H]3CC[C@]12C [EM 316, 17β-(N-methyl-N-formamido)-4-methyl-4-aza-5α-androstan-3-one] | 29 nM | – |
| CC(C)(C)NC(=O)[C@H]1CC[C@H]2[C@@H]3CC[C@H]4NC(=O)C=C[C@]4(C)[C@H]3CC[C@]12C [MK-906] | – | reduction in prostatic size [5]: 25-30%; intraprostatic concentration of DHT [6]: reduction in the intraprostatic concentration of DHT; inhibition of the type II enzyme [7]: potent inhibitor of the type II enzyme; inhibition of the type I enzyme [8]: weak inhibitor of the type I enzyme |
| CCCNC(=O)N(C1CC1)[C@H]1CC[C@H]2[C@@H]3CC[C@H]4N(C)C(=O)CC[C@]4(C)[C@H]3CC[C@]12C [EM 390] | 7.1 nM | – |
| CN1C(=O)CC[C@]2(C)[C@H]3CC[C@]4(C)[C@@H](N(C(=O)NC5CCCCC5)C5CC5)CC[C@H]4[C@@H]3CC[C@@H]12 [EM 397] | 3.2 nM | – |
| CCCN(C=O)[C@H]1CC[C@H]2[C@@H]3CC[C@H]4N(C)C(=O)CC[C@]4(C)[C@H]3CC[C@]12C [EM 423, 17β-(N-n-propyl-N-formamido)-4-methyl-4-aza-5α-androstan-3-one] | 5.1 nM | – |
| CCCCN(C(C)=O)[C@H]1CC[C@H]2[C@@H]3CC[C@H]4N(C)C(=O)CC[C@]4(C)[C@H]3CC[C@]12C [EM 424, 17β-(N-n-butyl-N-acetamido)-4-methyl-4-aza-5α-androstan-3-one] | 11.8 nM | – |
| CC(C)NC(=O)N(C1CC1)[C@H]1CC[C@H]2[C@@H]3CC[C@H]4N(C)C(=O)CC[C@]4(C)[C@H]3CC[C@]12C [EM 396] | 14 nM | – |
| CC(C)CCN(C=O)[C@H]1CC[C@H]2[C@@H]3CC[C@H]4N(C)C(=O)CC[C@]4(C)[C@H]3CC[C@]12C [EM 405, 17β-(N-iso-Amyl-N-formamido)-4-methyl-4-aza-5α-androstan-3-one] | 2.2 nM | – |
